We go through four molecules from patent US5064811A, “De-mannosyl teicoplanin derivatives” (Gruppo LePetit S.p.A., priority 1987, dated 1991).

For assay [1], the system named is Strep. pyogenes L49 C203. Kind of assay: MIC, standard broth dilution test. The assay is classed as cell-based, Streptococcus pyogenes. The settings on record: Todd-Hewitt broth, 24 h; inoculum about 10^4-10^5 cfu/ml.
For assay [2], the system named is Haemophilus influenzae L 970 type b ATCC 19418. Kind of assay: MIC, standard broth dilution test. The settings on record: Brain Heart broth +1% Supplement C, 48 h; inoculum about 10^4-10^5 cfu/ml. The assay is classed as cell-based.
The test system of assay [3] is Proteus vulgaris L79 X19H ATCC881. The assay is classed as cell-based. The settings on record: Isosensitest broth, 24 h (Gram-negative bacteria); inoculum about 10^4-10^5 cfu/ml.
In assay [4] the test system is Strep. mitis L796 (clinical isolate). As to the kind of experiment: MIC, standard broth dilution test. The assay is classed as cell-based, Streptococcus mitis. The note with it: Todd-Hewitt broth, 24 h; inoculum about 10^4-10^5 cfu/ml.
Assay [5] deals with Escherichia coli L47 SKF 12140. Kind of assay: MIC, standard broth dilution test. It is filed as cell-based. The settings on record: Isosensitest broth, 24 h; inoculum about 10^4-10^5 cfu/ml. In general terms: In broth dilution the organism is exposed to a series of concentrations in liquid medium.
The subject of assay [6] is Strep. faecalis L149 ATCC 7080. Kind of assay: MIC, standard broth dilution test. It is filed as cell-based, Streptococcus faecalis. The note with it: Isosensitest broth, 24 h; inoculum about 10^4-10^5 cfu/ml.
The test system of assay [7] is Neisseria gonorrhoeae L997 ISM68/126. Kind of assay: MIC, standard broth dilution test. The assay is classed as cell-based. The note with it: GC base broth +1% Isovitalex, 48 h, CO2-enriched atmosphere; inoculum about 10^4-10^5 cfu/ml.
Assay [8] deals with Pseudomonas aeruginosa L4 ATCC10145. Kind of assay: MIC, standard broth dilution test. The note with it: Isosensitest broth, 24 h (Gram-negative bacteria); inoculum about 10^4-10^5 cfu/ml. It is filed as cell-based.
Assay [9] concerns Strep. pneumoniae L44 UC41. Kind of assay: MIC, standard broth dilution test. The settings on record: Todd-Hewitt broth, 24 h; inoculum about 10^4-10^5 cfu/ml. It is filed as cell-based, Streptococcus pneumoniae.
Assay [10] concerns Staph. epider midis L147 ATCC 12228 (coagulase negative). As to the kind of experiment: MIC, standard broth dilution test. It is filed as cell-based, Staphylococcus epidermidis. The settings on record: Isosensitest broth, 24 h; inoculum about 10^4-10^5 cfu/ml.
The subject of assay [11] is Staph. aureus L165. As to the kind of experiment: MIC, standard broth dilution test. It is filed as cell-based, Staphylococcus aureus. The note with it: Isosensitest broth, 24 h.
Assay [12] concerns Staph. haemolyticus L602 (clinical isolate). Kind of assay: MIC, standard broth dilution test. The assay is classed as cell-based, Staphylococcus haemolyticus. The note with it: Isosensitest broth, 24 h; inoculum about 10^4-10^5 cfu/ml.
The mark [13] stands for this setting: Staph. aureus (30% bovine serum).
Where [14] appears, read: Staph. aureus L165, inoculum about 10^4-10^5 cfu/ml.

On to `CCC(C)CCCCCCC(=O)N[C@H]1[C@H](Oc2c3cc4cc2Oc2ccc(cc2Cl)C(O[C@@H]2O[C@H](CO)[C@@H](O)[C@H](O)[C@H]2NC(C)=O)C2NC(=O)C(NC(=O)C4NC(=O)C4NC(=O)C(Cc5ccc(c(Cl)c5)O3)NC(=O)C(N)c3ccc(O)c(c3)Oc3cc(O)cc4c3)c3ccc(O)c(c3)-c3c(O)cc(O)cc3C(C(=O)O)NC2=O)O[C@H](CO)[C@@H](O)[C@@H]1O` (some centres unmarked) [DM-TA2-4, de-mannosyl teicoplanin complex component 4], for which the M.I.C. in assay [1] was 0.063 microgram/ml; in [2], 64 microgram/ml; in [3], above 128 microgram/ml; in [4], 0.125 microgram/ml; in assay [5] it was above 128 microgram/ml; in assay [6], 0.063 microgram/ml. In addition, the M.I.C. is 32 microgram/ml in assay [7]; above 128 microgram/ml in assay [8]; 0.063 microgram/ml in assay [9]; 0.063 microgram/ml in [10]; 0.25 microgram/ml in [11] (Staph. aureus (10^6 cfu/ml)); 0.5 microgram/ml in [11] (setting [13]). For the same molecule, the M.I.C. in assay [11] (setting [14]) came to 0.125 microgram/ml; in assay [12], 0.5 microgram/ml.
For the molecule `CCCCCCCCCC(=O)N[C@H]1[C@H](Oc2c3cc4cc2Oc2ccc(cc2Cl)C(O[C@@H]2O[C@H](CO)[C@@H](O)[C@H](O)[C@H]2NC(C)=O)C2NC(=O)C(NC(=O)C4NC(=O)C4NC(=O)C(Cc5ccc(c(Cl)c5)O3)NC(=O)C(N)c3ccc(O)c(c3)Oc3cc(O)cc4c3)c3ccc(O)c(c3)-c3c(O)cc(O)cc3C(C(=O)O)NC2=O)O[C@H](CO)[C@@H](O)[C@@H]1O` (some centres unmarked) [DM-TA2-3, de-mannosyl teicoplanin complex component 3], the M.I.C. in assay [1] is listed as 0.063 microgram/ml; in assay [2] it was 64 microgram/ml; in assay [3], above 128 microgram/ml; in [4], 0.063 microgram/ml; in [5] it was above 128 microgram/ml; in [6], 0.063 microgram/ml. Further, the M.I.C. in assay [7] was found to be 32 microgram/ml; in assay [8], 128 microgram/ml; in assay [9], 0.063 microgram/ml; in assay [10], 0.063 microgram/ml; in assay [11] (Staph. aureus (10^6 cfu/ml)), 0.125 microgram/ml; in assay [11] (setting [13]), 0.5 microgram/ml. The M.I.C. came out at 0.063 microgram/ml in assay [11] (setting [14]) and 0.5 microgram/ml in assay [12].
As to `CC(=O)N[C@H]1[C@H](OC2c3ccc(c(Cl)c3)Oc3cc4cc(c3O[C@@H]3O[C@H](CO)[C@@H](O)[C@H](O)[C@H]3NC(=O)CCCCCCC(C)C)Oc3ccc(cc3Cl)CC3NC(=O)C(N)c5ccc(O)c(c5)Oc5cc(O)cc(c5)C(NC3=O)C(=O)NC4C(=O)NC3C(=O)NC2C(=O)NC(C(=O)O)c2cc(O)cc(O)c2-c2cc3ccc2O)O[C@H](CO)[C@@H](O)[C@@H]1O` (some centres unmarked) [DM-TA2-2, de-mannosyl teicoplanin complex component 2], the M.I.C. in assay [1] was 0.063 microgram/ml; in [2], 64 microgram/ml; in [3] it was above 128 microgram/ml; in assay [4], 0.063 microgram/ml; in [5] it was above 128 microgram/ml; in [6], 0.063 microgram/ml. The M.I.C. is reported as 32 microgram/ml in assay [7]; above 128 microgram/ml in [8]; 0.063 microgram/ml in [9]; 0.063 microgram/ml in [10]; 0.125 microgram/ml in assay [11] (Staph. aureus (10^6 cfu/ml)); 0.5 microgram/ml in assay [11] (setting [13]). The M.I.C. in assay [11] (setting [14]) was found to be 0.063 microgram/ml; in assay [12], 0.5 microgram/ml.
As for `CC(=O)N[C@H]1[C@H](OC2c3ccc(c(Cl)c3)Oc3cc4cc(c3O[C@@H]3O[C@H](CO)[C@@H](O)[C@H](O)[C@H]3NC(=O)CCCCCCCC(C)C)Oc3ccc(cc3Cl)CC3NC(=O)C(N)c5ccc(O)c(c5)Oc5cc(O)cc(c5)C(NC3=O)C(=O)NC4C(=O)NC3C(=O)NC2C(=O)NC(C(=O)O)c2cc(O)cc(O)c2-c2cc3ccc2O)O[C@H](CO)[C@@H](O)[C@@H]1O` (some centres unmarked) [DM-TA2-5, de-mannosyl teicoplanin complex component 5], the M.I.C. in assay [1] is 0.063 microgram/ml; in [2], 32 microgram/ml; in assay [3], above 128 microgram/ml; in assay [4] it was 0.063 microgram/ml; in assay [5] it was above 128 microgram/ml; in assay [6], 0.063 microgram/ml. In addition, the M.I.C. in assay [7] is listed as 32 microgram/ml; in assay [8] it was above 128 microgram/ml; in assay [9] it was 0.063 microgram/ml; in assay [10], 0.063 microgram/ml; in [11] (Staph. aureus (10^6 cfu/ml)) it was 0.125 microgram/ml; in [11] (setting [13]), 0.5 microgram/ml. For the same molecule, the M.I.C. in assay [11] (setting [14]) stood at 0.063 microgram/ml; in assay [12], 0.25 microgram/ml.
